From US11919910B2, “Spiropyrrolidine derived antiviral agents” (ENANTA PHARMACEUTICALS, INC., priority 2021, dated 2024)

Biological target: SARS-CoV-2 3CL-protease (Severe acute respiratory syndrome coronavirus 2, UniProt P0DTD1)
Test: SARS-CoV-2 3C-like (3CL) protease fluorescence assay (FRET)
Type: biochemical
Conditions: recombinant SARS-CoV-2 3CL-protease 10 nM, 30 min preincubation at RT, substrate 40 μM, run in duplicate

**Q.** Which IC50 does the source give for CC(C)C[C@@H](C(=O)N1C[C@]2(C[C@@H]1C(=O)c1nc3ccccc3s1)C(=O)Nc1ccccc12)N(C)C(=O)c1cc2c(F)cc(F)cc2[nH]1 [Example 2] here?
**A.** > 10 µM

**Q.** Which IC50 does the source give for CC(C)C[C@@H](C(=O)N1C[C@]2(C[C@H]1C(=O)c1nc3ccccc3s1)C(=O)Nc1ccccc12)N(C)C(=O)OCc1ccccc1 [Example 5] here?
**A.** > 10 µM

**Q.** For CC(C)C[C@@H](C(=O)N1C[C@]2(C[C@H]1C(=O)c1nc3ccccc3s1)C(=O)Nc1ccccc12)N(C)C(=O)c1cc2c(F)cc(F)c(F)c2[nH]1 [Example 3], which IC50 is on record?
**A.** > 10 µM

**Q.** With CC(C)C[C@@H](C(=O)N1C[C@]2(C[C@H]1C(=O)c1nc3ccccc3s1)C(=O)Nc1ccccc12)N(C)C(=O)c1cc2c(F)cc(F)cc2[nH]1 [Example 1] as the compound, how does the IC50 read?
**A.** < 1 µM

**Q.** Which IC50 does the source give for CC(C)C[C@@H](C(=O)N1C[C@]2(C[C@@H]1C(=O)c1nc3ccccc3s1)C(=O)Nc1ccccc12)N(C)C(=O)c1cc2c(F)cc(F)c(F)c2[nH]1 [Example 4] here?
**A.** > 10 µM

**Q.** Which IC50 does the source give for CC(C)C[C@@H](C(=O)N1C[C@]2(C[C@H]1C(=O)c1nc3ccccc3s1)C(=O)Nc1ccccc12)N(C)C(=O)[C@H](C)NC(=O)OCc1ccccc1 [Example 6] here?
**A.** < 1 µM

System: not given
Test: not given
Type: physicochemical
Conditions: not given
Procedure: Step 7: Compound (3-6) (80 mg, 0.167 mmol) and 4,6,7-trifluoro-1H-indole-2-carboxylic acid (36.0 mg, 0.167 mmol) were dissolved in CH2Cl2 (1.393 ml) and DMF (0.279 ml) at 0° C. 4-methylmorpholine (55.1 μl, 0.501 mmol) and HATU (66.7 mg, 0.176 mmol) were added. The mixture was stirred at 0° C. for 3 h, diluted with DCM, and washed with 5% NaHCO3. The organic layer was washed with brine, dried over Na2SO4, and concentrated in vacuo. The crude was purified by chromatography on silica gel (ISCO 4 g) using ethyl acetate/cyclohexane (0-60%) to give a product as a light yellow oil (3-7) (60 mg, 53%). LC-MS, ES−: 674.2 [M-1]. Step 8: To a solution of (3-7) (60 mg, 0.089 mmol) in DCM (2 ml) at 0° C. was added Dess-Martin periodinane (56.5 mg, 0.133 mmol). The mixture was stirred at 0° C. for 3 h, quenched with 10% Na2S2O3, stirred for another 15 min, and extracted with DCM. The combined organic layers were washed with 10% Na2S2O3, Sat. NaHCO3, brine, dried over Na2SO4, and concentrated.

**Q.** With CC(C)C[C@@H](C(=O)N1C[C@]2(C[C@H]1C(=O)c1nc3ccccc3s1)C(=O)Nc1ccccc12)N(C)C(=O)c1cc2c(F)cc(F)c(F)c2[nH]1 [Example 3] as the compound, how does the stability in solution read?
**A.** not stable in solution
